From paper PMC6332040, “Synthesis, Density Functional Theory (DFT), Urease Inhibition and Antimicrobial Activities of 5-Aryl Thiophenes Bearing Sulphonylacetamide Moieties” (Molecules, 2015) come the findings set out here.

One data set addresses Jack bean urease enzyme (Canavalia ensiformis, UniProt P07374). The experiment in a line: biochemical. Format: biochemical. The note with it: pH 6.8. As to the method:
Urease is an enzyme which converts urea to ammonium carbonate and is used as a diagnostic tool to establish the presence of different pathogens in the urinary and gastrointestinal tract. The percentage activity values of urease enzyme of compounds 4a–d were measured at 50 µg/mL and 250 µg/mL (Table 5), whereas, for compounds 4e–g, the percentage activity values of urease enzyme were measured at 15, 40 and 80 µg/mL, respectively (Table 6).
Jack bean urease enzyme (25 µL) was added in buffer solution (55 µL) containing 100 mM urea to prepare the stock solution. This mixture was then incubated with 5 µL (0.5 mM concentration) of the newly synthesized compounds for 15 min at 30 °C in 96-well plates. Anti-urease activity was resolved by knowing the production of ammonia using the indophenol method. Concisely, in each well, phenol reagent (45 µL, 0.005% w/v sodium nitroprusside and 1% w/v phenol) was added in addition to the alkali reagent (70 µL, NaOH 0.5% w/v and 0.1% NaOCl). After 50 min, the increase in absorbance was measured at 630 nm using a micro plate reader. All reactions were carried out in triplicate to obtained 200 µL final volume. The Softmax pro software was used to obtain the results as change in absorbance per minute. All assays were carried out at a specific pH of 6.8. The following formula was used to calculate the % inhibition: 100 − (OD test well/OD control) × 100(3)
Thiourea was used as standard inhibitor of urease. The EZ-fit kinetic data base was used to determine IC50 values. In the case of colored compounds, sample blanks were also prepared. Absorbance of sample blanks was subtracted from the absorbance of samples to get the corrected absorbance of the samples. Corrected absorbance of sample was used to calculate % age inhibition.

Where [1] appears, read: IC50, urease, Table 5 series (4a–d).
Where [2] appears, read: IC50, urease, Table 6 series (4e–g).

Several values for one entry are separate records, joined by “and”; a condition that tells them apart may be missing. Equal entries are not always repeated.

Sequence of Jack bean urease enzyme (P07374 whole entry, looked up): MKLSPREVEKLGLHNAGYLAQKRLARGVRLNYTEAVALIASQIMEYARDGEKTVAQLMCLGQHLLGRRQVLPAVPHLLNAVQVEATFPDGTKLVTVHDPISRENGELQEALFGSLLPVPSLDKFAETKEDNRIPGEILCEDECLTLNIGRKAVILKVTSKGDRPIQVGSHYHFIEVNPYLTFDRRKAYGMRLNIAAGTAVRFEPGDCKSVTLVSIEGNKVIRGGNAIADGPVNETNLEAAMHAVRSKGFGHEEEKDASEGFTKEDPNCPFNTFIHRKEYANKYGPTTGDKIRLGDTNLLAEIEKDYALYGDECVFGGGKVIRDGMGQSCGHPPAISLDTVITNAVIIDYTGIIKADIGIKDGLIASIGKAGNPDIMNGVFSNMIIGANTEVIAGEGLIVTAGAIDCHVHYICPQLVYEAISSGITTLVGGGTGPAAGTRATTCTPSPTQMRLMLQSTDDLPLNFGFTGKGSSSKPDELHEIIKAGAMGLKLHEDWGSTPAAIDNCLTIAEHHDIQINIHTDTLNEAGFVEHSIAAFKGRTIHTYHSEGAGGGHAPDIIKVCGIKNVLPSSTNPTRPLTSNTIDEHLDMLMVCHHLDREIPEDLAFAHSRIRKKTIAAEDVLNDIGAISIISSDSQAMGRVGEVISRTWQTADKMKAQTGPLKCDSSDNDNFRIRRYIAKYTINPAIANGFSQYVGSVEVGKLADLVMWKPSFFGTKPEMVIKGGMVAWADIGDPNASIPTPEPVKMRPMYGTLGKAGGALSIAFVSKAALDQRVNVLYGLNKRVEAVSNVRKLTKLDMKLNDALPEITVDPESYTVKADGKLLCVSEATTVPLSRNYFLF

On to `CC(=O)NS(=O)(=O)c1ccc(-c2ccccc2)s1` [Compound 4a], for which the melting point – broadly, the temperature, or range, at which the solid turns liquid – is 158 to 160 °C. At Jack bean urease enzyme (setting [1]), the IC50 (in general, the concentration that inhibits the measured activity by half) was ~136 µM and 136 µM. The compound also registered a Percent urease inhibition at Jack bean urease enzyme (urease inhibition at 50 µg/mL) of 67.56 ± 0.007%. This compound displayed a Percent urease inhibition at Jack bean urease enzyme (urease inhibition at 250 µg/mL) of 89 ± 0.01%.

Compound `CC(=O)NS(=O)(=O)c1ccc(-c2cc(C(F)(F)F)cc(C(F)(F)F)c2)s1` [Compound 4b, N-((5-(3,5-Bis(trifluoromethyl)phenyl)thiophen-2-yl)sulfonyl)acetamide] returned a melting point of 168 °C. For the same compound, the concentration for half-maximal inhibition (IC50) against Jack bean urease enzyme (setting [1]) is ~197 µM and 197 µM. At Jack bean urease enzyme (urease inhibition at 50 µg/mL), this compound gave a Percent urease inhibition of 29.98 ± 0.034%. On Jack bean urease enzyme (urease inhibition at 250 µg/mL), this compound had a Percent urease inhibition of 56 ± 0.006%.

In the case of `CC(=O)NS(=O)(=O)c1ccc(-c2ccc(Cl)c(Cl)c2)s1` [Compound 4c], the melting point lay in the range of 148 to 150 °C. In addition, at Jack bean urease enzyme (setting [1]), the IC50 is ~121 µM and 121 µM. On Jack bean urease enzyme (urease inhibition at 50 µg/mL), this compound yielded a Percent urease inhibition of 54.4 ± 0.002%. On Jack bean urease enzyme (urease inhibition at 250 µg/mL), this compound had a Percent urease inhibition of 78 ± 0.003%.

In turn, `CC(=O)NS(=O)(=O)c1ccc(-c2ccc(C)cc2)s1` [Compound 4d] showed a melting point of 161 to 163 °C. The compound further gave an IC50 at Jack bean urease enzyme (setting [1]) of 738 µM. In addition, the Percent urease inhibition at Jack bean urease enzyme (urease inhibition at 50 µg/mL) was 13.34 ± 0.007%. The compound further returned a Percent urease inhibition on Jack bean urease enzyme (urease inhibition at 250 µg/mL) of 54 ± 0.004%.

As to `CC(=O)NS(=O)(=O)c1ccc(-c2cc(C)cc(C)c2)s1` [Compound 4e], the melting point lay in the range of 148 to 149 °C. The same compound showed a half-maximal inhibitory concentration (IC50) at Jack bean urease enzyme (setting [2]) of 57.9 µM. In addition, the Percent urease inhibition on Jack bean urease enzyme (urease inhibition at 15 µg/mL) is 44.59 ± 0.14%. This compound showed a Percent urease inhibition at Jack bean urease enzyme (urease inhibition at 40 µg/mL) of 91.21 ± 0.81%. The Percent urease inhibition at Jack bean urease enzyme (urease inhibition at 80 µg/mL) is recorded as 92.88 ± 0.14%.

In the case of `CC(=O)NS(=O)(=O)c1ccc(-c2ccc(C)s2)s1` [Compound 4f], the melting point lay in the range of 167 to 168.4 °C. The IC50 at Jack bean urease enzyme (setting [2]) is ~56.7 µM and 56.7 µM. The compound also displayed a Percent urease inhibition on Jack bean urease enzyme (urease inhibition at 15 µg/mL) of 42.44 ± 0.11%. The Percent urease inhibition at Jack bean urease enzyme (urease inhibition at 40 µg/mL) worked out at 92.12 ± 0.21%. The Percent urease inhibition on Jack bean urease enzyme (urease inhibition at 80 µg/mL) is 94.66 ± 0.11%.

As to `CC(=O)NS(=O)(=O)c1ccc(-c2ccc(Cl)cc2)s1` [Compound 4g], the melting point was in the range of 167 to 170 °C. The compound also showed a half-inhibitory concentration (IC50) against Jack bean urease enzyme (setting [2]) of 73.8 µM. The same compound showed a Percent urease inhibition on Jack bean urease enzyme (urease inhibition at 15 µg/mL) of 46.23 ± 0.11%. At Jack bean urease enzyme (urease inhibition at 40 µg/mL), the Percent urease inhibition is reported as 90.97 ± 0.18%. At Jack bean urease enzyme (urease inhibition at 80 µg/mL), this compound had a Percent urease inhibition of 68 ± 0.02%.

On to `NC(N)=S` [Standard, Thiourea, reference compound], for which the Percent urease inhibition at Jack bean urease enzyme (urease inhibition at 15 µg/mL) amounted to 47.1 ± 0.31%; at Jack bean urease enzyme (urease inhibition at 40 µg/mL), 65 ± 0.01%; at Jack bean urease enzyme (urease inhibition at 50 µg/mL) it was 60 ± 0.032%; on Jack bean urease enzyme (urease inhibition at 250 µg/mL) it was 95 ± 0.09%. Also, the IC50 on Jack bean urease enzyme (urease, Table 5 series (4a–d)) is reported as 43 ± 0.38 µg/mL; against Jack bean urease enzyme (urease, Table 6 series (4e–g)), 23.3 µg/mL.
